# Measurements: PubChem BioAssay (NCI)
# Where “and” joins values, the source holds several entries; their conditions need not be identical. Identical values can stand only once.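 In this assay, cells in 96-well plates receive the compound at five concentrations for 48 hours. Endpoints are linearly interpolated between the surrounding concentrations. GI50 = concentration required for 50% inhibition of growth. At the TGI there is no net growth.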
# Tests used:
# Assay in all cases: NCI tumour cell line growth inhibition, 48 h
# [1] = test system: KM12 colon
# [2] = test system: NCI-H23 lung
# [3] = test system: MCF7 breast
# [4] = test system: SK-MEL-5 melanoma
# [5] = test system: SK-MEL-2 melanoma
# [6] = test system: U251 CNS
# [7] = test system: HL-60(TB) leukemia
# [8] = test system: COLO 205 colon
# [9] = test system: SF-268 CNS
# [10] = test system: SR leukemia
# [11] = test system: A498 renal
Compound,TGI [1],TGI [2],TGI [3],TGI [4],TGI [5],TGI [6],TGI [7],TGI [8],TGI [9],TGI [10],TGI [11],GI50 [11],GI50 [2],GI50 [5],GI50 [8],GI50 [10],GI50 [9]
COc1ccc2c(c1)N=C1CSC(c3c(Cl)cccc3[N+](=O)[O-])N1C2 (configuration not stated),> 100 µM,> 100 µM,> 100 µM,39.5 µM,> 100 µM,> 100 µM,79.3 µM,> 100 µM,> 100 µM,–,–,–,–,–,–,–,–
C/C(=N/NC(=S)NCCc1ccccn1)c1cnccn1,> 100 µM,> 100 µM,–,> 100 µM,> 100 µM,> 100 µM,–,> 100 µM,> 100 µM,65.9 µM,–,–,–,–,–,–,–
CCCCCCCSCC1C(=O)C23C(O)C1CCC2C12COC3(O)C(O)C1C(C)(C)CCC2O (configuration not stated),23.9 µM,34 µM,–,25.1 µM,29.8 µM,22.7 µM,16.3 µM,15.1 µM,33.9 µM,23.6 µM,26.9 µM,–,–,–,–,–,–
O=C1NC(=NC2CCCCC2)C2(CCN(CCCC3(c4ccc(F)cc4)OCCO3)CC2)N1c1ccccc1,38.9 µM,34.3 µM,48.3 µM,28.2 µM,30.2 µM,30.2 µM,28.7 µM,38.4 µM,42.2 µM,31.4 µM,–,–,–,–,–,–,–
CC[C@](C)(O)C(=O)O[C@H]1C(=O)O[C@@H]2C[C@H]3C(C)=C[C@H](O)[C@@H](O)[C@]3(C)[C@H]3[C@@]4(O)OC[C@]32[C@@H]1[C@@H](C)[C@H]4O,109 µM,13.5 µM,39 µM,30 µM,118 µM,70.5 µM,43.1 µM,86.1 µM,207 µM,–,71.5 µM,–,–,–,–,–,–
COc1ccc(NS(=O)c2ccc(OC)cc2)cc1 (configuration not stated),24.1 µM,> 100 µM,> 100 µM,> 100 µM,83.6 µM,34.2 µM,> 100 µM,> 100 µM,74.4 µM,> 100 µM,–,–,–,–,–,–,–
Nc1ccccc1OCc1cc(=O)c(OCc2ccccc2)co1,> 100 µM,> 100 µM,89 µM,> 100 µM,–,> 100 µM,> 100 µM,44.9 µM,> 100 µM,> 100 µM,–,–,–,–,–,–,–
CC(=O)OC[C@@H](OC(C)=O)[C@@H](OC(C)=O)[C@H]1OC[C@@H]2C[C@H]([C@H]1OC(C)=O)N(Cc1ccccc1)O2,> 100 µM,> 100 µM,> 100 µM,> 100 µM,> 100 µM,> 100 µM,> 100 µM,> 100 µM,> 100 µM,> 100 µM,–,–,–,–,–,–,–
CC1=NN(C(=O)c2ccccc2O)C(c2ccccc2Cl)C1C(=O)Nc1ccccc1 (configuration not stated),> 100 µM,> 100 µM,> 100 µM,30.5 µM,> 100 µM,> 100 µM,7.24 µM,> 100 µM,30.8 µM,> 100 µM,–,–,–,–,–,–,–
O=C(NCCN1CCCC1)c1cn2c(ccc3sc4ccccc4c(=O)c32)n1,37.5 µM,32.4 µM,–,31.2 µM,36 µM,> 51.7 µM,26.8 µM,26.7 µM,30.1 µM,8.79 µM,33.1 µM,–,–,–,–,–,–
Nc1nc(Cl)cc(NCCCCCCCCCCCCNc2cc(Cl)nc(N)n2)n1,> 100 µM,12.6 µM,–,3.72 µM,> 100 µM,20.1 µM,> 100 µM,> 100 µM,> 100 µM,> 100 µM,> 100 µM,–,–,–,–,–,–
COc1cc(C2(O)c3ccccc3C3=NCCN32)cc(OC)c1OC (configuration not stated),> 100 µM,> 100 µM,–,> 100 µM,> 100 µM,> 100 µM,> 100 µM,> 100 µM,> 100 µM,> 100 µM,> 100 µM,–,–,–,–,–,–
CCN(CC)c1cccc2c1C1(O)CCC3(CC21)OCCCCO3 (configuration not stated),> 100 µM,> 100 µM,–,> 100 µM,> 100 µM,> 100 µM,> 100 µM,> 100 µM,> 100 µM,–,> 100 µM,–,–,–,–,–,–
O=C(NCC(C(=O)OCc1ccccc1)C(=O)OCc1ccccc1)OCc1ccccc1,> 100 µM,> 100 µM,> 100 µM,> 100 µM,> 100 µM,> 100 µM,–,> 100 µM,> 100 µM,> 100 µM,–,–,–,–,–,–,–
N#C/C(=C\c1ccc(Br)cc1)c1nc(-c2cc3ccccc3oc2=O)cs1,> 50 µM,–,> 50 µM,> 50 µM,> 50 µM,20.1 µM,> 50 µM,> 50 µM,> 50 µM,> 50 µM,–,–,–,–,–,–,–
CC(C)CCCC(C)[C@H]1CC[C@H]2[C@@H]3CC[C@H]4C[C@@H](CCC=C(c5cc(Cl)c(O)c(C(=O)O)c5)c5cc(Cl)c(O)c(C(=O)O)c5)CC[C@]4(C)[C@H]3CC[C@]12C (some centres not stated) (tested in a mixture with another compound),> 50 µM,> 50 µM,> 50 µM,> 50 µM,> 50 µM,> 50 µM,> 50 µM,> 50 µM,> 50 µM,–,> 50 µM,–,–,–,–,–,–

Compound,TGI [1],TGI [2],TGI [3],TGI [4],TGI [5],TGI [6],TGI [7],TGI [8],TGI [9],TGI [10],TGI [11],GI50 [11],GI50 [2],GI50 [5],GI50 [8],GI50 [10],GI50 [9]
COc1ccc(CCc2ccccc2CC(=O)O)cc1,> 100 µM,> 100 µM,–,> 100 µM,> 100 µM,> 100 µM,> 100 µM,> 100 µM,> 100 µM,> 100 µM,> 100 µM,–,–,–,–,–,–
COc1ccc2c(c1)CCCN1Cc3ccccc3CC21 (configuration not stated),> 100 µM,> 100 µM,> 100 µM,56.7 µM,–,> 100 µM,> 100 µM,> 100 µM,> 100 µM,–,96.8 µM,–,–,–,–,–,–
CC(=O)c1cccc(NC(=O)C(=O)C(C(=O)c2ccccc2F)C2OC(=O)c3ccccc32)c1 (configuration not stated),> 100 µM,> 100 µM,–,> 100 µM,96.1 µM,53.2 µM,64.8 µM,41.9 µM,> 100 µM,54.9 µM,> 100 µM,–,–,–,–,–,–
O=C1c2ccccc2-c2c1c(-c1ccccc1)c1n2C2(C(=O)c3ccccc3C2=O)C2C(=O)N(c3ccccc3)C(=O)C12 (configuration not stated),47.9 µM,37.4 µM,73.4 µM,35.3 µM,51.4 µM,> 100 µM,–,50.7 µM,65.6 µM,–,> 100 µM,–,–,–,–,–,–
Clc1ccc(-c2nnc(C34CC5CC(CC(C5)C3)C4)o2)cc1,–,> 100 µM,–,> 100 µM,> 100 µM,> 100 µM,> 100 µM,> 100 µM,> 100 µM,> 100 µM,> 100 µM,–,–,–,–,–,–
FC(F)(F)C1(C(F)(F)F)O[SiH]2(OC(C(F)(F)F)(C(F)(F)F)c3ccccc32)c2ccccc21,62.5 µM,24.5 µM,–,–,49.3 µM,19.6 µM,–,45.2 µM,–,37.8 µM,–,–,–,–,–,–,–
C/C(=N\NC(=S)NNC(=S)N(C)c1ccccc1)c1ccccn1,> 100 µM,> 100 µM,> 100 µM,–,> 100 µM,> 100 µM,–,> 100 µM,> 89 µM,–,–,–,–,–,–,–,–
CCOC(=O)/C=C/c1c[nH]c(C(=O)OCC)c1,> 100 µM,> 100 µM,> 100 µM,> 100 µM,> 100 µM,> 100 µM,> 100 µM,> 100 µM,> 100 µM,–,> 100 µM,–,–,–,–,–,–
COc1cc(C2c3cc4c(cc3[C@@H](NCCCN(C)C)[C@H]3COC(=O)C23)OCO4)cc(OC)c1O (some centres not stated),2.26 µM and 3.61 µM,0.759 µM and 1.56 µM,–,0.825 µM and 1.15 µM,1.46 µM and 5.09 µM,2.15 µM and 1.9 µM,0.231 µM and 0.245 µM,3.93 µM and 5.78 µM,1.51 µM and 7.28 µM,–,0.327 µM and 0.696 µM,0.0838 µM and 0.19 µM,0.139 µM and 0.291 µM,0.733 µM and 1.96 µM,0.714 µM and 1.94 µM,0.354 µM and 0.0544 µM,0.202 µM and 0.591 µM
N/C(COc1ccc(Cl)cc1)=N\NC(=O)c1ccncc1,> 100 µM,> 100 µM,> 100 µM,–,> 100 µM,> 100 µM,> 100 µM,> 100 µM,> 100 µM,–,> 100 µM,–,–,–,–,–,–
COc1cccc(C[C@H]2COC(=O)[C@]2(O)Cc2cccc(OC)c2)c1,> 100 µM,> 100 µM,–,> 100 µM,> 100 µM,> 100 µM,> 100 µM,> 100 µM,39.4 µM,> 100 µM,> 100 µM,–,–,–,–,–,–
ClCc1ccc2ccc3ccc(CCl)nc3c2n1,2.32 µM,7.88 µM,2.74 µM,3.13 µM,4.81 µM,3.78 µM,4.43 µM,3.15 µM,55 µM,–,22.4 µM,–,–,–,–,–,–
COc1cc(C2c3cc4c(cc3OC(NCc3ccccc3)C2C)OCO4)cc(OC)c1OC (configuration not stated),5.69 µM,> 48.2 µM,48.7 µM,1.78 µM,> 66.6 µM,21.2 µM,0.699 µM,0.726 µM,> 36.8 µM,–,> 100 µM,–,–,–,–,–,–
CC1CC(C)(O)CC(C(O)CC2CC(=O)NC(=O)C2)C1=O (configuration not stated),1.41 µM,1.56 µM,0.686 µM,0.195 µM,2.68 µM,7.9 µM,1.1 µM,1.01 µM,> 69.3 µM,–,3.51 µM,–,–,–,–,–,–
CO/N=C(/C(=O)OC)c1ccccc1COc1cccc(C(F)(F)F)c1,92 µM,> 100 µM,85.1 µM,17.9 µM,> 100 µM,> 100 µM,49 µM,> 100 µM,> 100 µM,–,> 100 µM,–,–,–,–,–,–
